Source: PubChem BioAssay (NCI)
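Cultured in 96-well plates, cells were exposed to test compound for 48 hours across five concentrations. Here, GI50 denotes the concentration required for 50% inhibition of growth. TGI denotes the concentration required for complete inhibition of growth.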

How the values were obtained:
Test in all cases: inhibition of tumour cell growth, NCI panel, 48 h
[1] = tested on: 786-0 renal
[2] = tested on: A498 renal
[3] = tested on: A549 NSCLC
[4] = tested on: ACHN renal
[5] = tested on: BT-549 breast
[6] = tested on: CAKI-1 renal
[7] = tested on: CCRF-CEM leukemia
[8] = tested on: COLO 205 colon
[9] = tested on: DU-145 prostate
[10] = tested on: EKVX NSCLC
[11] = tested on: HCC-2998 colon
[12] = tested on: HCT-116 colon
[13] = tested on: HCT-15 colon
[14] = tested on: HL-60(TB) leukemia
[15] = tested on: HOP-62 NSCLC
[16] = tested on: HOP-92 NSCLC
[17] = tested on: HS 578T breast
[18] = tested on: HT29 colon
[19] = tested on: IGROV1 ovarian
[20] = tested on: K-562 leukemia
[21] = tested on: KM12 colon
[22] = tested on: LOX IMVI melanoma
[23] = tested on: M14 melanoma
[24] = tested on: MALME-3M melanoma
[25] = tested on: MCF7 breast
[26] = tested on: MDA-MB-435
[27] = tested on: MDA-MB-468 breast
[28] = tested on: MOLT-4 leukemia
[29] = tested on: NCI-H226 lung
[30] = tested on: NCI-H23 lung
[31] = tested on: NCI-H460 lung
[32] = tested on: NCI-H522 lung
[33] = tested on: OVCAR-3 ovarian
[34] = tested on: OVCAR-4 ovarian
[35] = tested on: OVCAR-5 ovarian
[36] = tested on: OVCAR-8 ovarian
[37] = tested on: PC-3 prostate
[38] = tested on: RPMI-8226 leukemia
[39] = tested on: RXF 393 renal
[40] = tested on: SF-268 CNS
[41] = tested on: SF-295 CNS
[42] = tested on: SF-539 CNS
[43] = tested on: SK-MEL-2 melanoma
[44] = tested on: SK-MEL-28 melanoma
[45] = tested on: SK-MEL-5 melanoma
[46] = tested on: SK-OV-3 ovarian
[47] = tested on: SN12C renal
[48] = tested on: SNB-75 CNS
[49] = tested on: SW-620 colon
[50] = tested on: TK-10 renal
[51] = tested on: U251 CNS
[52] = tested on: UACC-257 melanoma
[53] = tested on: UACC-62 melanoma

**Q.** With `C=C1CC[C@@H]2[C@]3(C)COC(c4cn[nH]c4-c4cccc(Cl)c4)O[C@@H]3CC[C@@]2(C)[C@@H]1C/C=C1/C(=O)OCC1O` (stereo partly specified) as the molecule, how does the GI50 [1] read?
**A.** 3.36 µM

**Q.** What about the TGI [1] of the same molecule?
**A.** 11.7 µM

**Q.** And the GI50 [2]?
**A.** 18.5 µM

**Q.** What about the TGI [2] of the same molecule?
**A.** 32.6 µM

**Q.** What about the GI50 [3] of the same molecule?
**A.** 9.73 µM

**Q.** And the TGI [3]?
**A.** 30.4 µM

**Q.** And the GI50 [4]?
**A.** 2.47 µM

**Q.** What about the TGI [4] of the same molecule?
**A.** 6.95 µM

**Q.** And the GI50 [5]?
**A.** 2.36 µM

**Q.** What about the TGI [5] of the same molecule?
**A.** 6.03 µM

**Q.** What about the GI50 [6] of the same molecule?
**A.** 4 µM

**Q.** And the TGI [6]?
**A.** 14.6 µM

**Q.** And the GI50 [7]?
**A.** 2.7 µM

**Q.** And the TGI [7]?
**A.** 11.4 µM

**Q.** What about the GI50 [8] of the same molecule?
**A.** 4.85 µM

**Q.** And the TGI [8]?
**A.** 19.5 µM

**Q.** And the GI50 [9]?
**A.** 5.01 µM

**Q.** And the TGI [9]?
**A.** 19.5 µM

**Q.** What about the GI50 [10] of the same molecule?
**A.** 3.68 µM

**Q.** And the TGI [10]?
**A.** 13.9 µM

**Q.** What about the GI50 [11] of the same molecule?
**A.** 3.49 µM

**Q.** What about the TGI [11] of the same molecule?
**A.** 11.5 µM

**Q.** And the GI50 [12]?
**A.** 1.84 µM

**Q.** What about the TGI [12] of the same molecule?
**A.** 3.93 µM

**Q.** What about the GI50 [13] of the same molecule?
**A.** 1.79 µM

**Q.** And the TGI [13]?
**A.** 3.81 µM

**Q.** And the GI50 [14]?
**A.** 2.91 µM

**Q.** And the TGI [14]?
**A.** 16.3 µM

**Q.** And the GI50 [15]?
**A.** 15.3 µM

**Q.** And the TGI [15]?
**A.** 32 µM

**Q.** And the GI50 [16]?
**A.** 4.29 µM

**Q.** What about the TGI [16] of the same molecule?
**A.** 22.3 µM

**Q.** What about the GI50 [17] of the same molecule?
**A.** 9.04 µM

**Q.** And the TGI [17]?
**A.** 62.7 µM

**Q.** And the GI50 [18]?
**A.** 2.7 µM

**Q.** What about the TGI [18] of the same molecule?
**A.** 6.8 µM

**Q.** And the GI50 [19]?
**A.** 4.14 µM

**Q.** What about the TGI [19] of the same molecule?
**A.** 15.8 µM

**Q.** And the GI50 [20]?
**A.** 2.41 µM

**Q.** And the TGI [20]?
**A.** 10.5 µM

**Q.** And the GI50 [21]?
**A.** 3.29 µM

**Q.** What about the TGI [21] of the same molecule?
**A.** 13.1 µM

**Q.** And the GI50 [22]?
**A.** 1.44 µM

**Q.** And the TGI [22]?
**A.** 2.83 µM

**Q.** What about the GI50 [23] of the same molecule?
**A.** 2.19 µM

**Q.** And the TGI [23]?
**A.** 5.88 µM

**Q.** And the GI50 [24]?
**A.** 1.84 µM

**Q.** What about the TGI [24] of the same molecule?
**A.** 4.26 µM

**Q.** What about the GI50 [25] of the same molecule?
**A.** 2.06 µM

**Q.** And the TGI [25]?
**A.** 9.16 µM

**Q.** What about the GI50 [26] of the same molecule?
**A.** 2.47 µM

**Q.** And the TGI [26]?
**A.** 7.62 µM

**Q.** And the GI50 [27]?
**A.** 1.88 µM

**Q.** And the TGI [27]?
**A.** 4.97 µM

**Q.** What about the GI50 [28] of the same molecule?
**A.** 3.83 µM

**Q.** What about the TGI [28] of the same molecule?
**A.** 18.2 µM

**Q.** And the GI50 [29]?
**A.** 1.66 µM

**Q.** And the TGI [29]?
**A.** 3.21 µM

**Q.** What about the GI50 [30] of the same molecule?
**A.** 4.36 µM

**Q.** What about the TGI [30] of the same molecule?
**A.** 15.9 µM

**Q.** And the GI50 [31]?
**A.** 8.87 µM

**Q.** What about the TGI [31] of the same molecule?
**A.** 25.6 µM

**Q.** And the GI50 [32]?
**A.** 1.75 µM

**Q.** And the TGI [32]?
**A.** 3.59 µM

**Q.** And the GI50 [33]?
**A.** 1.93 µM

**Q.** And the TGI [33]?
**A.** 3.77 µM

**Q.** What about the GI50 [34] of the same molecule?
**A.** 4.4 µM

**Q.** And the TGI [34]?
**A.** 45.7 µM

**Q.** And the GI50 [35]?
**A.** 3.63 µM

**Q.** And the TGI [35]?
**A.** 14 µM

**Q.** And the GI50 [36]?
**A.** 2.39 µM

**Q.** What about the TGI [36] of the same molecule?
**A.** 7.7 µM

**Q.** And the GI50 [37]?
**A.** 4.08 µM

**Q.** And the TGI [37]?
**A.** 30.7 µM

**Q.** And the GI50 [38]?
**A.** 2.25 µM

**Q.** What about the TGI [38] of the same molecule?
**A.** 7.02 µM

**Q.** And the GI50 [39]?
**A.** 1.73 µM

**Q.** And the TGI [39]?
**A.** 3.24 µM

**Q.** What about the GI50 [40] of the same molecule?
**A.** 17.3 µM

**Q.** What about the TGI [40] of the same molecule?
**A.** 41.4 µM

**Q.** And the GI50 [41]?
**A.** 4.27 µM

**Q.** And the TGI [41]?
**A.** 16.1 µM

**Q.** And the GI50 [42]?
**A.** 1.77 µM

**Q.** And the TGI [42]?
**A.** 3.36 µM

**Q.** And the GI50 [43]?
**A.** 2.71 µM

**Q.** And the TGI [43]?
**A.** 8.53 µM

**Q.** And the GI50 [44]?
**A.** 1.98 µM

**Q.** What about the TGI [44] of the same molecule?
**A.** 4.05 µM

**Q.** And the GI50 [45]?
**A.** 2.27 µM

**Q.** And the TGI [45]?
**A.** 5.37 µM

**Q.** And the GI50 [46]?
**A.** 16 µM

**Q.** What about the TGI [46] of the same molecule?
**A.** 35.1 µM

**Q.** And the GI50 [47]?
**A.** 2.94 µM

**Q.** And the TGI [47]?
**A.** 10.5 µM

**Q.** What about the GI50 [48] of the same molecule?
**A.** 2.41 µM

**Q.** What about the TGI [48] of the same molecule?
**A.** 12.3 µM

**Q.** What about the GI50 [49] of the same molecule?
**A.** 2.35 µM

**Q.** What about the TGI [49] of the same molecule?
**A.** 5.96 µM

**Q.** What about the GI50 [50] of the same molecule?
**A.** 12.4 µM

**Q.** What about the TGI [50] of the same molecule?
**A.** 25.7 µM

**Q.** And the GI50 [51]?
**A.** 2.15 µM

**Q.** And the TGI [51]?
**A.** 5.29 µM

**Q.** What about the GI50 [52] of the same molecule?
**A.** 11.2 µM

**Q.** And the TGI [52]?
**A.** 27 µM

**Q.** What about the GI50 [53] of the same molecule?
**A.** 1.69 µM

**Q.** What about the TGI [53] of the same molecule?
**A.** 3.62 µM
